Experimental data taken from article PMC10344891, “Continuous enzyme activity assay for high-throughput classification of histone deacetylase 8 inhibitors” (Exploration of Targeted Anti-tumor Therapy, 2023).
Structures can show the parent of a compound that is named as a salt. Where two headings read alike, the source gives them in different places.

How the values were obtained:
human KDAC8 [1] = target: T1, human KDAC8 (Homo sapiens, UniProt Q9BY41); experiment: Michaelis-Menten kinetics with the continuous KDAC8 assay; format: biochemical; parameters: full-length human KDAC8 was produced in E. coli BL21 (DE3); His6-SUMO (N, cleaved yes); made in house; host or cells: E. coli BL21 (DE3), pET14b vector; conditions: n = 3
T1 sequence (Q9BY41 1-377): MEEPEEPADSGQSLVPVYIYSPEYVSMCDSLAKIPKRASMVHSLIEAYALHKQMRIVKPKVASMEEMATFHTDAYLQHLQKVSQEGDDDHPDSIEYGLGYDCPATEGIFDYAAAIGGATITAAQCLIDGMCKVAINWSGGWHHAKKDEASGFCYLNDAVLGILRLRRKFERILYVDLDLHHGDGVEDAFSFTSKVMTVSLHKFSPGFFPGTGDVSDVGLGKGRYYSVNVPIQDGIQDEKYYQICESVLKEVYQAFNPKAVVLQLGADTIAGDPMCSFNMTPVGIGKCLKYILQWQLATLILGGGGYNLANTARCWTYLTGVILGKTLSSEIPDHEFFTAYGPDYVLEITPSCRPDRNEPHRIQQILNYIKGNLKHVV
Method: The measurements were carried out in a black 96-well microtiter plate (Greiner) at 30°C in assay buffer (see above). A serial two-fold dilution ranging from 50 µmol/L substrate, Boc-Lys(TFA)-AMC (Bachem), to 780 nmol/L, was prepared in an assay buffer containing 0.1 mg/mL trypsin. The enzymatic reaction was initiated by the addition of 10 nmol/L KDAC8. […] The data points were plotted against time and blank corrected. For the determination of Michaelis-Menten parameters, a linear regression analysis of the initial slope (vi) of each curve was performed. Slopes were transformed into rates of AMC product formation using a calibration curve with different AMC concentrations. The obtained enzyme conversion rates were plotted against the respective substrate concentration and fitted to the Michaelis-Menten function using GraphPad Prism software. The turnover number (kcat) was calculated as
where vi is the substrate conversion rate and E is the enzyme concentration. All solutions were pre-incubated at 30°C.

human KDAC8 [2] = target: T1, human KDAC8; experiment: Thermal shift assay (SYPRO orange melting curves); format: binding; parameters: full-length human KDAC8 was produced in E. coli BL21 (DE3); His6-SUMO (N, cleaved yes); made in house; host or cells: E. coli BL21 (DE3), pET14b vector; conditions: for ΔTm at 100 µM: read-out: ΔTm (thermal stabilization of KDAC8)
Method: By utilizing a QuantStudio™ 5 real-time quantitative polymerase chain reaction (qPCR) system (Thermo Fisher Scientific), protein melting curves with SYPRO® orange as fluorescence dye were generated. […] A DMSO control without ligand was utilized as a positive control. After mixing the components, the samples were incubated at 30°C for 1 h in the real-time qPCR system to assure binding equilibrium. […] The fluorescence signal was plotted against the temperature. The melting point was calculated as the point of inflection of the first derivative using protein thermal shift software (Thermo Fisher Scientific).

trypsin = experiment: Trypsin inhibition counter-assay (Bz-Arg-PNA); format: biochemical; conditions: 0.1 mg/mL trypsin, 400 µmol/L Bz-Arg-PNA, any applied concentration
Method: where EA stands for the enzyme activity at a given ligand concentration x, Emax and E0 are the enzyme activities without ligand and under complete inhibition, respectively. IC50 is the ligand concentration at which half of the enzyme activity is inhibited and h is a measure of the steepness of the dose-response curve. […] All solutions were pre-incubated at 30°C. The two-step IC50 determination has been described previously. In short: KDAC8 was incubated with the respective ligands, and the enzymatic reaction was started by the addition of 20 µmol/L Boc-Lys(TFA)-AMC substrate (Bachem). […]. In this endpoint assay, the fluorescence signal was correlated to […] and normalized with a positive control without ligand. Data analysis was performed as described above. For IC50 determination due to trypsin inhibition, the basic IC50 procedure was identical. In the assay 0.1 mg/mL trypsin and 400 µmol/L Bz-Arg-PNA (Bachem) were used. The change in substrate absorbance was recorded in a microplate reader (Spark®, Tecan) at 405 nm. In this endpoint assay, the absorbance signal was correlated to […] and normalized with a positive control without ligand. Data analysis was performed as described above.

human KDAC8 [3] = target: T1, human KDAC8; experiment: Two-step endpoint KDAC8 activity assay, IC50 determination; format: biochemical; parameters: full-length human KDAC8 was produced in E. coli BL21 (DE3); His6-SUMO (N, cleaved yes); made in house; host or cells: E. coli BL21 (DE3), pET14b vector; conditions: 20 µmol/L Boc-Lys(TFA)-AMC, stopped with SATFMK, trypsin development, n = 3
human KDAC8 [4] = target: T1, human KDAC8; experiment: Progress curves of continuous KDAC8 assay: relative KDAC8 activity after 5,000 s (stabilization curves); conditions: ratio of late-stage to early-stage slopes, normalized to free KDAC8
Method: The measurements were carried out in a black 96-well half-area microtiter plate (Greiner) at 30°C in assay buffer (see above). The respective ligand was diluted in Master Mix (see above) and binding kinetics were initiated by the addition of 10 nmol/L KDAC8. […] All solutions were pre-incubated at 30°C. Slopes were calculated for the early-stage (1,000 s to 2,000 s) and the late-stage (5,000 s to 6,000 s) using linear regression. The relative KDAC8 activity in the presence of different inhibitor concentrations was calculated as the ratio of the late-stage and early-stage slopes and normalized to free KDAC8 enzyme.

human KDAC8 [5] = target: T1, human KDAC8; experiment: Continuous (one-step) KDAC8 enzyme activity assay, IC50 determination; format: biochemical; parameters: full-length human KDAC8 was produced in E. coli BL21 (DE3); His6-SUMO (N, cleaved yes); made in house; host or cells: E. coli BL21 (DE3), pET14b vector; conditions: for IC50: 10 nmol/L KDAC8, 60 min pre-incubation at 30°C, 20 µmol/L Boc-Lys(TFA)-AMC, 0.1 mg/mL trypsin, mean ± SD, n = 3; for Inhibition mode: classification of mode of action on KDAC8; for Time-dependence of IC50 values: pre-incubation times 5 min to 60 min, 100 nmol/L KDAC8
KDAC11 = conditions: cited from earlier work
[6] = 100 µmol/L inhibitor, 12 µmol/L KDAC8, 1 h at 30°C before melting

SMILES | Km (human KDAC8 [1]; assay buffer (low salt), 10 nmol/L KDAC8, 30°C) [µM] | kcat (human KDAC8 [1]; assay buffer) [s⁻¹] | ΔTm (thermal stabilization of KDAC8) (human KDAC8 [2]; [6]) [°C] | ΔTm at 100 µM (human KDAC8 [2]; [6]) [°C] | Effect on trypsin activity (trypsin) | IC50 (human KDAC8 [3]) [nM] | Stabilization of KDAC8 activity (relative KDAC8 activity after 5,000 s vs free enzyme) (human KDAC8 [4]) | IC50 (human KDAC8 [5]) [nM] | Inhibition mode (human KDAC8 [5]) | Time-dependence of IC50 values (human KDAC8 [5]) | ΔTm at 100 µM (human KDAC8 [2]) [°C] | Stabilization of KDAC11 (KDAC11) | Time to establish binding equilibrium with KDAC8 (human KDAC8 [5]; deduced from unchanged IC50 at shortest pre-incubation time)
Cc1cc(=O)oc2cc(NC(=O)[C@H](CCCCNC(=O)C(F)(F)F)NC(=O)OC(C)(C)C)ccc12 [Boc-Lys(TFA)-AMC, tert-butyl N-[(1S)-1-[(4-methyl-2-oxo-chromen-7-yl)carbamoyl]-5-[(2,2,2-trifluoroacetyl)amino]pentyl]carbamate] | 8.9 ± 1.6 | 0.034 ± 0.002 |  |  |  |  |  |  |  |  |  |  | 
CCN1C(=O)C=CC1=O [NEM, N-ethylmaleimide] |  |  | 4.58 ± 0.26 | 4 to 5 | no effect against trypsin | 780 ± 180 | do not preserve the relative KDAC8 activity | 320 ± 90 | Covalent inactivation | significant changes in IC50-values over time |  |  | 
O=C(CCCCCCC(=O)Nc1ccccc1)NO [SAHA, suberoylanilide hydroxamic acid] |  |  |  |  |  |  |  |  | Fast reversible binding | no time-dependent change in IC50-values | 8.5 ± 0.06 | capable of stabilizing KDAC11 | less than 5 min
O=[N+]([O-])c1ccc(CCS(=O)(=O)c2nc(Cl)ns2)cc1 [TJ-19-29, 3-chloro-5-[2-(4-nitrophenyl)ethanesulfonyl]-1,2,4-thiadiazole] |  |  | 4.4 ± 0.3 | 4 to 5 | no effect against trypsin | 120 ± 40 | do not preserve the relative KDAC8 activity | 30 ± 9 | Covalent inactivation |  |  |  | 
CC(/C=C/C(=O)NO)=C\[C@H](C)C(=O)c1ccc(N(C)C)cc1 [TSA, trichostatin A] |  |  |  |  |  |  |  |  | Fast reversible binding |  | 11.96 ± 0.06 |  | 
